Source: article PMC6452851, “Properties of a cryptic lysyl oxidase from haloarchaeon Haloterrigena turkmenica” (PeerJ, 2019)

Key:
HTU-LOX (HTU-QV variant) = target: T1, HTU-LOX (HTU-QV variant) (Haloterrigena turkmenica, UniProt D2RU96); assay: Amplex red / horseradish peroxidase fluorometric H2O2 release assay; format: biochemical; details: inhibitor, bought as fumarate salt; 0.1 mM used as negative control; 0.1 M borate pH 8.3, 37 °C
T1 construct: gene Htur_0264; delta1-91, catalytic domain, N-terminus Gln92-Val; His-tag kept (pQE-30); full-length protein 308 residues, 33,829 Da

HTU-LOX (HTU-AA variant) = target: T2, HTU-LOX (HTU-AA variant) (Haloterrigena turkmenica, UniProt D2RU96); assay: as above; format: biochemical; details: 0.1 M borate pH 8.3, 37 °C; Cu2+-refolded enzyme
T2 construct: gene Htur_0264; delta1-34, signal peptide removed, N-terminus Ala35-Ala; His-tag kept (pQE-30); full-length protein 308 residues
T2 sequence (D2RU96 35-296): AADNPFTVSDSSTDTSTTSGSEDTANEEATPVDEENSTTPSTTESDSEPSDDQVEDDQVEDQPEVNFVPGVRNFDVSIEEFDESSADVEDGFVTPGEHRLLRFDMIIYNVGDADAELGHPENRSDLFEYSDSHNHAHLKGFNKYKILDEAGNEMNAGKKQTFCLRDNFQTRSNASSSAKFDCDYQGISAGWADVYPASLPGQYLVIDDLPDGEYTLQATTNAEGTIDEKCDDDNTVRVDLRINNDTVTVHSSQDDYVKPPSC

N#CCCN [3-aminopropionitrile]
Amplex red / horseradish peroxidase fluorometric H2O2 release assay (HTU-LOX (HTU-QV variant)): HTU-LOX demonstrated good sensitivity to the classical inhibitor of all LOXes—3-aminopropionitrile (BAPN)

NCCc1c[nH]cn1 [histamine]
Amplex red / horseradish peroxidase fluorometric H2O2 release assay (HTU-LOX (HTU-AA variant)): Refolded proteins HTU-QV and HTU-AA exhibit activity against a wide variety of primary amines
